The results in this text go back to patent US20030061759A1, “Method for expelling harmful insects by volatilization of a chemical” (FUMAKILLA LIMITED, priority 2000, published 2003).

The subject of series [1] is female adult stegomyia mosquitoes (Aedes albopictus). Kind of series: Comparative debugging efficaciousness tests: bloodsucking prevention on rats, liquid type electric mosquito repellent utensil. The note with it: for Potency Ratio (Etoc 100), of IC50 Value / Potency Ratio (Etoc 100), of IC90 Value: relative to d,d-T80-prallethrin (Etoc) = 100; for efficacy of preventing mosquitoes from bloodsucking rats compared with transfluthrin: comparison in words. It counts as in vivo. The procedure: First, debugging efficaciousness tests were performed. For the criterion of judgment to compare degrees of efficaciousness, the effect of bloodsucking by mosquitoes of rats was adopted. Based on this, the following efficaciousness tests were carried out.
Comparative Debugging Efficaciousness Tests
Sample chemicals that were used were as follows: d,d-T80-prallethrin, transfluthrin, d1,d-T80-allethrin, d-T80-furamethrin, terallethrin and empenthrin; and pyrethroid technical products (sample chemicals) A, B, C, D, E, F, G and H.
Sample insects that were used were as follows: female adult stegomyia mosquitoes (Aedes albopictus) of Fumakilla (spelled phonetically) series 6th to 9th after emergence.
Sample chemical volatilizing form: A liquid type electric mosquito repellent utensil, a liquid agent (referred to below as “sample liquid”), obtained by diluting each of the sample chemicals with a solvent in a varying concentration, was allowed to volatilize.
Method used for tests: A test was conducted in two 8 straw mat (13.2 m^2) rooms, one as a treatment zone and the other as a non-treatment zone, both in a no-wind state and at a constant room temperature of 32° C.
In the treatment zone, three cages each with a rat confined therein were placed equidistantly spaced apart (about 20 cm) in the center of the test room. The mosquito repellent utensil placed on the floor surface of the center of the test room was preliminarily electrically energized for operation, and to thermally volatilize each of the sample liquids and fumigate the room therewith for a period of 30 minutes, and then about 100 (one hundred) of sample mosquitoes were released into the test room. After two hours following the release of the mosquitoes, all these sample mosquitoes were knocked-down by using a mosquito repellent mat, and the number of the mosquitoes which had bloodsucking was counted to find the proportion of bloodsucking.
In the non-treatment zone, also, after the 2 hours of bloodsucking, the proportion of bloodsucking was found.
A rate of bloodsucking prevention was derived from the proportions of bloodsucking in the treatment and non-treatment rooms as expressed by the following equation:
Rate of bloodsucking prevention =[(Total bloodsucking proportion in the non-treatment zone−Total bloodsucking proportion in the treatment zone)÷Total bloodsucking proportion in the non-treatment zone]×100
Also, on the basis of these amounts of volatilization and rates of bloodsucking prevention, an amount of volatilization at a 50% rate of bloodsucking prevention (IC50 value) and an amount of volatilization at a 90% rate of bloodsucking prevention (IC90 value) are found and shown in Table 1 below.

Series [2] is described as follows: Comparative vapor pressure tests by gas chromatography. It counts as physicochemical. How it is done: 2. Comparative Vapor Pressure Tests
Next, by using gas chromatography, the various chemicals including sample chemicals A, B and C screened out by the foregoing comparative debugging efficaciousness tests were compared with d,d-T80-prallethrin (Etoc) as regards to their vapor pressures.
The gas chromatography test included as its temperature conditions an initial temperature of 60° C., and a temperature rise of 5° C. per minute up to a maximum temperature of 250° C., which was held for a period of 5 minutes, whereupon the process ended.
The filler used was made up of methyl silicon polymer, which is non-polar.
It should also be noted that as an internal standard substance use was made of sebacic acid-n-butyl and which was added to confirm that there was no deviation in retention time from one test to another.
Retention times for the various chemicals are listed in Table 2 in the order of shorter to longer.

Series [3] deals with female adult common house mosquitoes (Culex pipiens pallens). Kind of series: Example 1: spontaneous volatilization efficaciousness test in 33 m^3 room (knockdown, KT50). The note with it: for potency and retention of potency compared with transfluthrin: comparison in words. It counts as in vivo. The text has this:
Using sample chemicals A, B and C screened out by the preliminary tests, the efficaciousness of each of them when allowed to volatilize spontaneously was compared with that of transfluthrin when allowed to volatilize spontaneously.
Sample Preparations (Chemicals and Their Carriers According to the Present Invention):
A non-woven polypropylene fabric (made by Idemitsu Petroleum Chemicals Co., Ltd., product name RW2100, density 100 grams/m^2) of 50 cm×40 cm was coated with a hexane solution of 100 milliliter containing 1% (W/V) sample chemicals A, B, C and left to dry for 24 hours (effective amount of chemical: 1000 milligrams).
Comparative Preparation (Chemical and its Carrier):
A non-woven polypropylene fabric (made by Idemitsu Petroleum Chemicals Co., Ltd., product name RW2100, density 100 grams/m^2) of 50 cm×40 cm was coated with a hexane solution of 100 milliliter containing 1% (W/V) of transfluthrin and left to dry for 24 hours (effective amount of chemical: 1000 milligrams).
Testing Method: Efficaciousness Tests in an 8 Straw Mat room with a volume of 33 m^3
In the center of the test room with a volume of 33 m^3 (3.65 m×3.65 m×2.5 m high), each chemical carrier as prepared as above was placed as hung on a hook suspended in the center of the room to let the corresponding chemical volatilize spontaneously for a period of 3 hours. Thereafter, a triangular net casing (20 cm×20 cm×16.4 cm high) of 16 mesh nylon net containing 10 (ten) female adult common house mosquitoes (Culex pipiens pallens) was placed as hung in an area at each of the four corners (spaced from the wall surfaces at a distance of 90 cm) at a height of 150 cm from the room floor and was exposed to the chemical atmosphere.
A test was also conducted likewise for the comparative carrier.
After the tests ended, the samples chemicals were let to volatilize spontaneously in the room having a constant temperature of 30° C. The same test was repeated at given intervals and efficaciousness was then examined each time.

Where [4] appears, read: 60° C. initial, 5° C. per minute up to 250° C., non-polar methyl silicon polymer filler.
Setting [5] is: 13.2 m^2 room, 32° C., 30 min pre-fumigation, 2 hours after release, rats.

Read-outs that look alike come from different tables or passages of the source.

In the case of `CC1(C)[C@H](C=C(Cl)Cl)[C@H]1C(=O)OCc1c(F)c(F)cc(F)c1F` [Transfluthrin, reference compound], in series [1], the “Potency Ratio (Etoc 100), of IC50 Value” turned out to be 19.0. Besides, in series [1], the “Potency Ratio (Etoc 100), of IC90 Value” was 29.2. For the same compound, in series [2] (setting [4]), the “Retention Time (gas chromatography, as comparison of vapor pressure)” value (“Retention Time” for short) worked out at 23.6 min. Also, the KT50 in series [3] (elapsed time 0 hr) stood at 11.10 min; in series [3] (elapsed time 168 hr), 8.73 min; in series [3] (elapsed time 336 hr), 9.17 min; in series [3] (elapsed time 504 hr), 13.40 min; in series [3] (elapsed time 672 hr), 12.10 min; in series [3] (elapsed time 864 hr), 17.20 min. For the same compound, the KT50 is given as 15.60 min in series [3] (elapsed time 1056 hr); 20.40 min in series [3] (elapsed time 1200 hr); 18.80 min in series [3] (elapsed time 1344 hr); 28.10 min in series [3] (elapsed time 1536 hr); 30.40 min in series [3] (elapsed time 1680 hr).

With `C#CC(OC(=O)C1C(C=C(Cl)Cl)C1(C)C)C(F)=CCC` (centres unmarked) [Sample Chemical B, 1-ethnyl-2-fluoro-2-pentenyl 3-(2,2-dichlorovinyl)-2,2-dimethylcyclopropanecarboxylate], the “IC50 Value (amount of volatilization at a 50% rate of bloodsucking prevention)” value in series [1] (setting [5]) was 0.0047 mg/h. The “IC90 Value (amount of volatilization at a 90% rate of bloodsucking prevention)” value in series [1] (setting [5]) was determined as 0.0083 mg/h. Further, in series [1], the “efficacy of preventing mosquitoes from bloodsucking rats compared with transfluthrin” value is on record as “more efficacious than transfluthrin”. Also, the “Potency Ratio (Etoc 100), of IC50 Value” in series [1] turned out to be 172.3. Moreover, the “Potency Ratio (Etoc 100), of IC90 Value” in series [1] came to 469.9. The “Retention Time” value in series [2] is on record as 26.4 min. Also, the “vapor pressure compared with transfluthrin and d,d-T80-prallethrin” value in series [2] is “lower than transfluthrin, but higher than d,d-T80-prallethrin”. Further, the “potency and retention of potency compared with transfluthrin” value in series [3] is “higher in potency and also longer in retention time than transfluthrin”. Further, the KT50 in series [3] (elapsed time 0 hr) stood at 8.64 min; in series [3] (elapsed time 168 hr), 7.53 min; in series [3] (elapsed time 336 hr), 7.77 min; in series [3] (elapsed time 504 hr), 7.48 min; in series [3] (elapsed time 672 hr), 6.45 min; in series [3] (elapsed time 864 hr), 7.90 min. Further, the KT50 in series [3] (elapsed time 1056 hr) was determined as 8.00 min; in series [3] (elapsed time 1200 hr), 8.00 min; in series [3] (elapsed time 1344 hr), 8.40 min; in series [3] (elapsed time 1536 hr), 8.60 min; in series [3] (elapsed time 1680 hr), 9.60 min; in series [3] (elapsed time 1848 hr), 10.40 min. Also, the KT50 in series [3] (elapsed time 2016 hr) stood at 9.87 min; in series [3] (elapsed time 2208 hr), 11.70 min; in series [3] (elapsed time 2352 hr) it was 10.80 min; in series [3] (elapsed time 2520 hr) it was 12.00 min; in series [3] (elapsed time 2688 hr), 12.70 min; in series [3] (elapsed time 2856 hr) it was 13.50 min. For the same compound, the KT50 is listed as 14.90 min in series [3] (elapsed time 3024 hr); 18.60 min in series [3] (elapsed time 3192 hr); 20.70 min in series [3] (elapsed time 3360 hr); 22.90 min in series [3] (elapsed time 3528 hr); 26.80 min in series [3] (elapsed time 3696 hr); 28.00 min in series [3] (elapsed time 3864 hr). For the same compound, the values for the KT50 in series [3] (elapsed time 4032 hr) and in series [3] (elapsed time 4200 hr) were 25.60 min and 32.70 min, respectively.

As for `Cc1c(F)c(F)c(COC(=O)C2C(C=C(F)Cl)C2(C)C)c(F)c1F` (centres unmarked) [Sample Chemical C, 2,3,5,6-tetrafluoro-4-methylbenzyl 3-(2-chloro-2-fluorovinyl)-2,2-dimethylcyclopropanecarboxylate], the “efficacy of preventing mosquitoes from bloodsucking rats compared with transfluthrin” value in series [1] is recorded as “more efficacious than transfluthrin”. The “Potency Ratio (Etoc 100), of IC50 Value” in series [1] is 130.6. The “Potency Ratio (Etoc 100), of IC90 Value” in series [1] came to 348.2. Further, in series [2] (setting [4]), the “Retention Time” value is 24.5 min. The “vapor pressure compared with transfluthrin and d,d-T80-prallethrin” value in series [2] (from GC retention times) is given as “lower than transfluthrin, but higher than d,d-T80-prallethrin”. In addition, the “potency and retention of potency compared with transfluthrin” value in series [3] was “higher in potency and also longer in retention time than transfluthrin”. In addition, the KT50 is on record as 5.53 min in series [3] (elapsed time 0 hr); 7.53 min in series [3] (elapsed time 168 hr); 7.55 min in series [3] (elapsed time 336 hr); 6.95 min in series [3] (elapsed time 504 hr); 7.98 min in series [3] (elapsed time 672 hr); 12.60 min in series [3] (elapsed time 864 hr). Further, the KT50 stood at 10.70 min in series [3] (elapsed time 1056 hr); 11.50 min in series [3] (elapsed time 1200 hr); 12.60 min in series [3] (elapsed time 1344 hr); 15.90 min in series [3] (elapsed time 1536 hr); 20.70 min in series [3] (elapsed time 1680 hr); 25.90 min in series [3] (elapsed time 1848 hr). The KT50 came to 27.80 min in series [3] (elapsed time 2016 hr) and 30.60 min in series [3] (elapsed time 2208 hr).
